Assay results: US20230312578A1, “6H-INDOLO[2,3-B]QUINOXALINE DERIVATIVES USEFUL IN THERAPY” (Vironova Medical AB, priority 2020, published 2023)
Where two headings read alike, the source gives them in different places.

What was measured:
Assay type in all cases: cell-based
CCRF-CEM = assay: Human tumor cell line growth assay (SRB); conditions: Leukemia, 48 h; for CC50: read-out: LC50 (the source's name)
HL-60(TB) = assay: Human tumor cell line growth assay (SRB); conditions: Leukemia, 48 h
K-562 = assay: Human tumor cell line growth assay (SRB); conditions: K562, Leukemia, K-562, 48 h; for CC50: read-out: LC50 (the source's name)
RPMI-8226 = assay: Human tumor cell line growth assay (SRB); conditions: Homo sapiens; Leukemia, RPMI-8226, 48 h
A549/ATCC = assay: Human tumor cell line growth assay (SRB); conditions: Homo sapiens, NSCLC, 48 h
[1] = Human tumor cell line growth assay (SRB); conditions: human, HOP-62 cells (NSCLC), HOP-62, 48 h, read-out: LC50
HOP-62 = assay: Human tumor cell line growth assay (SRB); conditions: Homo sapiens; NSCLC, HOP-62, 48 h
[2] = Human tumor cell line growth assay (SRB); conditions: human, HOP-92 cells (NSCLC), HOP-92, 48 h
HOP-92 = assay: Human tumor cell line growth assay (SRB); conditions: Homo sapiens; NSCLC, HOP-92, 48 h
NCI-H23 = assay: Human tumor cell line growth assay (SRB); conditions: Homo sapiens; NSCLC, NCI-H23, 48 h
[3] = Human tumor cell line growth assay (SRB); conditions: human, NCI-H522 cells (NSCLC), NCI-H522, 48 h
NCI-H522 = assay: Human tumor cell line growth assay (SRB); conditions: Homo sapiens; NSCLC, NCI-H522, 48 h
HCC-2998 = assay: Human tumor cell line growth assay (SRB); conditions: Homo sapiens; Colon, HCC-2998, 48 h
SW-620 = assay: Human tumor cell line growth assay (SRB); conditions: Homo sapiens; Colon, SW-620, 48 h
[4] = Human tumor cell line growth assay (SRB); conditions: human, SF-268 cells (CNS), SF-268, 48 h
SF-268 = assay: Human tumor cell line growth assay (SRB); conditions: Homo sapiens; CNS, SF-268, 48 h
U251 = assay: Human tumor cell line growth assay (SRB); conditions: Homo sapiens, U-251; CNS, U251, 48 h
SK-MEL-28 = assay: Human tumor cell line growth assay (SRB); conditions: Homo sapiens; Melanoma, SK-MEL-28, 48 h
UACC-257 = assay: Human tumor cell line growth assay (SRB); conditions: Homo sapiens; Melanoma, UACC-257, 48 h
[5] = Human tumor cell line growth assay (SRB); conditions: human, IGR-OV1 cells (ovarian), IGR-OV1, 48 h, read-out: LC50
IGR-OV1 = assay: Human tumor cell line growth assay (SRB); conditions: Homo sapiens, IGROV-1; Ovarian, IGR-OV1, 48 h
[6] = Human tumor cell line growth assay (SRB); conditions: human, OVCAR-5 cells (ovarian), OVCAR-5, 48 h, read-out: LC50
OVCAR-5 = assay: Human tumor cell line growth assay (SRB); conditions: Homo sapiens; Ovarian, OVCAR-5, 48 h
NCI/ADR-RES = assay: Human tumor cell line growth assay (SRB); conditions: Ovarian, 48 h; for CC50: read-out: LC50 (the source's name)
SK-OV-3 = assay: Human tumor cell line growth assay (SRB); conditions: Ovarian, SK-OV-3, 48 h; for CC50: read-out: LC50 (the source's name)
786-0 = assay: Human tumor cell line growth assay (SRB); conditions: Renal, 786-0, 48 h
A498 = assay: Human tumor cell line growth assay (SRB); conditions: Renal, A498, 48 h; for CC50: read-out: LC50 (the source's name)
TK-10 = assay: Human tumor cell line growth assay (SRB); conditions: Renal, TK-10, 48 h; for CC50: read-out: LC50 (the source's name)
DU-145 = assay: Human tumor cell line growth assay (SRB); conditions: Prostate, DU-145, 48 h; for CC50: read-out: LC50 (the source's name)
HS 578T = assay: Human tumor cell line growth assay (SRB); conditions: Breast, 48 h; for CC50: read-out: LC50 (the source's name)
[7] = Human tumor cell line growth assay (SRB); conditions: human, A549/ATCC cells (NSCLC), read-out: LC50
[8] = Human tumor cell line growth assay (SRB); conditions: human, NCI-H23 cells (NSCLC), NCI-H23, 48 h, read-out: LC50
[9] = Human tumor cell line growth assay (SRB); conditions: human, SW-620 cells (colon), SW-620, 48 h
[10] = Human tumor cell line growth assay (SRB); conditions: human, U251 cells (CNS), U251, 48 h, read-out: LC50
[11] = Human tumor cell line growth assay (SRB); conditions: human, MALME-3M cells (melanoma), read-out: LC50
[12] = Human tumor cell line growth assay (SRB); conditions: human, SK-MEL-28 cells (melanoma), SK-MEL-28, 48 h, read-out: LC50
[13] = Human tumor cell line growth assay (SRB); conditions: human, UACC-257 cells (melanoma), UACC-257, 48 h, read-out: LC50

## Cc1cc2nc3c4cc(O)ccc4n(CCN(C)C)c3nc2cc1C [JBD-139, 6-(2-(dimethylamino)ethyl)-2,3-dimethyl-6H-indolo [2,3-b]quinoxalin-9-ol]
CCRF-CEM
  GI50: 0.468 µM
  CC50: > 100 µM
HL-60(TB)
  GI50: 0.356 µM
K-562
  GI50: 0.338 µM
  CC50: > 100 µM
RPMI-8226
  GI50: 0.366 µM
A549/ATCC
  GI50: 0.358 µM
[1]
  CC50 at 48 h: > 100 µM
HOP-62
  GI50: 0.569 µM
[2]
  LC50 at 48 h: > 100 µM
HOP-92
  GI50: 0.246 µM
NCI-H23
  GI50: 0.506 µM
[3]
  LC50 at 48 h: > 100 µM
NCI-H522
  GI50: 0.39 µM
HCC-2998
  GI50: 0.75 µM
SW-620
  GI50: 0.32 µM
[4]
  LC50 (50% lethal concentration) at 48 h: > 100 µM
SF-268
  GI50: 0.822 µM
U251
  GI50: 0.356 µM
SK-MEL-28
  GI50: 1.5 µM
UACC-257
  GI50: 0.597 µM
[5]
  CC50 at 48 h: 98.2 µM
IGR-OV1
  GI50: 0.392 µM
[6]
  CC50 at 48 h: > 100 µM
OVCAR-5
  GI50: 0.867 µM
NCI/ADR-RES
  GI50: 0.436 µM
  CC50: > 100 µM
SK-OV-3
  GI50: 1.16 µM
  CC50: > 100 µM
786-0
  GI50: 0.707 µM
A498
  GI50: 0.948 µM
  CC50: 5.69 µM
TK-10
  GI50: 1.74 µM
  CC50: > 100 µM
DU-145
  GI50: 0.598 µM
  CC50: > 100 µM
HS 578T
  GI50: 1.4 µM
  CC50: > 100 µM

## Cc1cc2nc3c4cc(N)ccc4n(CCN(C)C)c3nc2cc1C [JBD-136, 6-(2-(dimethylamino)ethyl)-2,3-dimethyl-6H-indolo [2,3-b]quinoxalin-9-amine]
CCRF-CEM
  GI50: 0.862 µM
  CC50: 76.9 µM
HL-60(TB)
  GI50: 1.21 µM
HL-60(TB); read-out: LC50 (the source's name)
  CC50: 21.9 µM
K-562
  GI50: 0.426 µM
  CC50: 65.6 µM
RPMI-8226
  GI50: 0.74 µM
[7]
  CC50 at 48 h: > 100 µM
A549/ATCC
  GI50: 0.464 µM
[1]
  CC50 at 48 h: > 100 µM
HOP-62
  GI50: 1.14 µM
[2]
  LC50 at 48 h: > 100 µM
HOP-92
  GI50: 0.912 µM
[8]
  CC50 at 48 h: 33 µM
NCI-H23
  GI50: 1.08 µM
[3]
  LC50 at 48 h: > 100 µM
NCI-H522
  GI50: 0.771 µM
HCC-2998
  GI50: 1.02 µM
[9]
  LC50 (50% lethal concentration) at 48 h: 83.8 µM
SW-620
  GI50: 0.389 µM
[4]
  LC50 (50% lethal concentration) at 48 h: 42.7 µM
SF-268
  GI50: 1.57 µM
[10]
  CC50 at 48 h: 54.2 µM
U251
  GI50: 0.64 µM
[11]
  CC50 at 48 h: 7.43 µM
[12]
  CC50 at 48 h: 11.4 µM
SK-MEL-28
  GI50: 2.26 µM
[13]
  CC50 at 48 h: 71.5 µM
UACC-257
  GI50: 1.5 µM
[5]
  CC50 at 48 h: > 100 µM
IGR-OV1
  GI50: 0.596 µM
[6]
  CC50 at 48 h: > 100 µM
OVCAR-5
  GI50: 1.24 µM
NCI/ADR-RES
  GI50: 0.506 µM
  CC50: > 100 µM
SK-OV-3
  GI50: 2.23 µM
  CC50: > 100 µM
786-0
  GI50: 1.52 µM
  LC50: 38.5 µM
A498
  GI50: 1.07 µM
  CC50: 5.86 µM
TK-10
  GI50: 2.26 µM
  CC50: > 100 µM
DU-145
  GI50: 1.55 µM
  CC50: 47.8 µM
HS 578T
  GI50: 2.12 µM
  CC50: > 100 µM
